Source: ChEMBL document CHEMBL1143507, “Molecular-modeling based design, synthesis, and activity of substituted piperidines as gamma-secretase inhibitors” (Bioorg Med Chem Lett, 2005)

Experiments:
[1] = biological target: T1, Amyloid-beta precursor protein (Homo sapiens, UniProt P05067); experiment: In vitro effective concentration against beta amyloid protein 42 in ELISA; increase in presence of weak inhibitor
Target sequence in this assay (P05067 whole entry): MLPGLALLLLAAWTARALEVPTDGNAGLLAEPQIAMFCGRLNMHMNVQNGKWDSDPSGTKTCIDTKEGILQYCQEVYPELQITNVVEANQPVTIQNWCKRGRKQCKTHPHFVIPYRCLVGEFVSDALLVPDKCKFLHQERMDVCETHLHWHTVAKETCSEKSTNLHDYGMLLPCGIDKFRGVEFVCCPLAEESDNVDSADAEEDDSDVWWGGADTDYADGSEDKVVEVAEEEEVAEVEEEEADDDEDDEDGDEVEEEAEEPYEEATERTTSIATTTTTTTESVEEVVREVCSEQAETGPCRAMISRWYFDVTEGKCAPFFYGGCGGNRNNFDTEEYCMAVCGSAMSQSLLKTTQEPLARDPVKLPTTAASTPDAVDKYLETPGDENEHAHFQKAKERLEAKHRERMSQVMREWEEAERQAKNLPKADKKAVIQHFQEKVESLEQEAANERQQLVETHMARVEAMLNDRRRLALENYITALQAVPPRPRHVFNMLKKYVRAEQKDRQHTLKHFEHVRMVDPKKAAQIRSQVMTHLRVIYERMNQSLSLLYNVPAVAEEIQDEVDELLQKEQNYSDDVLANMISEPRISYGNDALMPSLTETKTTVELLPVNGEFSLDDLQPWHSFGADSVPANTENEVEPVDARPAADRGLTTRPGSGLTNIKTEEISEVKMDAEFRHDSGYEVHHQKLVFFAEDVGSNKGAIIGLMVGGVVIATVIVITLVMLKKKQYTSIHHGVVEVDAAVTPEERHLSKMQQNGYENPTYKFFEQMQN

[2] = biological target: T1, Amyloid-beta precursor protein; experiment: In vitro reduction of Swedish NL mutant amyloid precursor protein activity expressed in CHO cells; assay type: functional, cell-based
Target sequence in this assay (P05067 18-770 limits assumed): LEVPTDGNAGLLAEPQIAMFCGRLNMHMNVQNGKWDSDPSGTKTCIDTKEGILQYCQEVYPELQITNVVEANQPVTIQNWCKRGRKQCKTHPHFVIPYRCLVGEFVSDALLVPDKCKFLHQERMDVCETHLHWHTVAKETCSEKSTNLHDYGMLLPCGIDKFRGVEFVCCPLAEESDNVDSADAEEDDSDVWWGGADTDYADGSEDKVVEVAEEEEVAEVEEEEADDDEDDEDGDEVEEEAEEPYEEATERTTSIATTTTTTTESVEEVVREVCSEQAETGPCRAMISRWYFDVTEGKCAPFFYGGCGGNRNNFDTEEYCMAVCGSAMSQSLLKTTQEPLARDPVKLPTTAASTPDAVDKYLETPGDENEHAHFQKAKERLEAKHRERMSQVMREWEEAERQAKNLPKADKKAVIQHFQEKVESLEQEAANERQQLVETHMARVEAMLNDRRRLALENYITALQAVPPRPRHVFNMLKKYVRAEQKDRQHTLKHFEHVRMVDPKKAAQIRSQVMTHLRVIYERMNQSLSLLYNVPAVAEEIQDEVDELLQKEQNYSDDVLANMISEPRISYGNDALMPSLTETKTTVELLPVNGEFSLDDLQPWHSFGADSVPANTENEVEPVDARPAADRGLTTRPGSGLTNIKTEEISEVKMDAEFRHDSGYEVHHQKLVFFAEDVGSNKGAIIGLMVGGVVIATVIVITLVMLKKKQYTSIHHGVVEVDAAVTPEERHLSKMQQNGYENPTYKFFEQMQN

[3] = biological target: T1, Amyloid-beta precursor protein; experiment: In vitro elevation of beta C-terminal fragment (Ct-99) in CHO cells expressing mutant Swedish NL human APP; assay type: functional, cell-based
Target sequence in this assay (P05067 18-770 limits assumed): as above

[4] = biological target: T1, Amyloid-beta precursor protein; experiment: Percent inhibition of beta amyloid protein 40 activity in ELISA at 100 uM
Target sequence in this assay (P05067 whole entry): as the sequence (P05067 whole entry) above

| EC50 [1] | SMILES | further results |
| --- | --- | --- |
| Increase | CCOC(=O)N1CCC(c2ccccc2C)(S(=O)(=O)c2ccc(OC)cc2)CC1 | – |
| – | CCOC(=O)N1CCC(c2ccccc2OC)(S(=O)(=O)c2ccc(Cl)cc2)CC1 | EC50 [2]: 530 nM; EC50 [3]: 640 nM |
| Increase | CCOC(=O)N1CCC(c2ccccc2OC)(S(=O)(=O)c2ccc(OC)cc2)CC1 | – |
| Increase | CCOC(=O)N1CCC(c2ccccc2)(S(=O)(=O)c2ccc(OC)cc2)CC1 | – |
| Increase | CCOC(=O)N1CCC(c2ccccc2OC)(S(=O)(=O)c2ccccc2)CC1 | – |
| Increase | CCOC(=O)N1CCC(c2ccccc2)(S(=O)(=O)c2ccccc2)CC1 | inhibition [4]: 84% |
| Increase | CCOC(=O)N1CCC(c2ccccc2C)(S(=O)(=O)c2ccccc2)CC1 | – |
